pIC50: −log10 of the molar value.
What was measured:
human TLR7 = target: T1, human TLR7 (Homo sapiens, UniProt Q9NYK1); assay: TLR7 inhibition reporter assay (HEK-Blue cells, SEAP reporter, gardiquimod stimulation); assay type: cell-based; conditions: HEK-Blue cells overexpressing human TLR7, gardiquimod 7.5 μM
T1 construct: host or cells: HEK-Blue cells
T1 sequence (Q9NYK1 27-1049): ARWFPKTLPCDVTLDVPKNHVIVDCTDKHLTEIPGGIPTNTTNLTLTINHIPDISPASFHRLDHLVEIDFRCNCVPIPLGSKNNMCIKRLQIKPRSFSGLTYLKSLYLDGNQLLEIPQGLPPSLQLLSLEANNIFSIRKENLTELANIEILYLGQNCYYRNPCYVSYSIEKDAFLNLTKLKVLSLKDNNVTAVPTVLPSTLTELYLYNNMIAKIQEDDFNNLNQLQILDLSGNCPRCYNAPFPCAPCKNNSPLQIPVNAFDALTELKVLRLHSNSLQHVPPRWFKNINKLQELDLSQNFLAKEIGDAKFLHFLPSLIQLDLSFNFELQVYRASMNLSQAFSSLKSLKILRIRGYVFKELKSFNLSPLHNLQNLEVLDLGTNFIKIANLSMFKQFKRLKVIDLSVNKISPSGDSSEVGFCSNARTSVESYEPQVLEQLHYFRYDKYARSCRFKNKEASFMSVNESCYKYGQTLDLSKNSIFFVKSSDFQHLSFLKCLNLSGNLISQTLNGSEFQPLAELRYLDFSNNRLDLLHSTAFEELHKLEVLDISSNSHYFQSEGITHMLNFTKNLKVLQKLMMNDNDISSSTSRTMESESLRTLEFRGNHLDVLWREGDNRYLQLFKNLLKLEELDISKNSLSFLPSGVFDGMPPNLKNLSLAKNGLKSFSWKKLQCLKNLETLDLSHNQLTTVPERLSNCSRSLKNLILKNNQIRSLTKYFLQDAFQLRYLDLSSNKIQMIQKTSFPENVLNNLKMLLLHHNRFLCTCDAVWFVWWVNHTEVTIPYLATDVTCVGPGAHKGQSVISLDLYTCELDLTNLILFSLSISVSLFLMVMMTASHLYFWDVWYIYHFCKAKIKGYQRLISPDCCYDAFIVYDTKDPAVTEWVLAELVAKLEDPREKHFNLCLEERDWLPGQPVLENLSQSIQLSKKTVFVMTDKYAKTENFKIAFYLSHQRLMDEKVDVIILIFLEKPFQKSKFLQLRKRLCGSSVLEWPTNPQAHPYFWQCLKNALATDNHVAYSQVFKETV
Summary of the method: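 Dose-response testing from 0.05 nM to 50 μM final was done on reporter cells for 22 hours at 37° C. Secreted SEAP was then detected, and inhibition was calculated as percent reduction of the agonist-plus-DMSO signal compared with wells given a known inhibitor.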

human TLR8 = target: T2, human TLR8 (Homo sapiens, UniProt Q9NR97); assay: TLR8 inhibition reporter assay (HEK-Blue cells, SEAP reporter, R848 stimulation); assay type: cell-based; conditions: HEK-Blue cells overexpressing human TLR8, R848 15.9 μM
T2 construct: host or cells: HEK-Blue cells
T2 sequence (Q9NR97 27-1041): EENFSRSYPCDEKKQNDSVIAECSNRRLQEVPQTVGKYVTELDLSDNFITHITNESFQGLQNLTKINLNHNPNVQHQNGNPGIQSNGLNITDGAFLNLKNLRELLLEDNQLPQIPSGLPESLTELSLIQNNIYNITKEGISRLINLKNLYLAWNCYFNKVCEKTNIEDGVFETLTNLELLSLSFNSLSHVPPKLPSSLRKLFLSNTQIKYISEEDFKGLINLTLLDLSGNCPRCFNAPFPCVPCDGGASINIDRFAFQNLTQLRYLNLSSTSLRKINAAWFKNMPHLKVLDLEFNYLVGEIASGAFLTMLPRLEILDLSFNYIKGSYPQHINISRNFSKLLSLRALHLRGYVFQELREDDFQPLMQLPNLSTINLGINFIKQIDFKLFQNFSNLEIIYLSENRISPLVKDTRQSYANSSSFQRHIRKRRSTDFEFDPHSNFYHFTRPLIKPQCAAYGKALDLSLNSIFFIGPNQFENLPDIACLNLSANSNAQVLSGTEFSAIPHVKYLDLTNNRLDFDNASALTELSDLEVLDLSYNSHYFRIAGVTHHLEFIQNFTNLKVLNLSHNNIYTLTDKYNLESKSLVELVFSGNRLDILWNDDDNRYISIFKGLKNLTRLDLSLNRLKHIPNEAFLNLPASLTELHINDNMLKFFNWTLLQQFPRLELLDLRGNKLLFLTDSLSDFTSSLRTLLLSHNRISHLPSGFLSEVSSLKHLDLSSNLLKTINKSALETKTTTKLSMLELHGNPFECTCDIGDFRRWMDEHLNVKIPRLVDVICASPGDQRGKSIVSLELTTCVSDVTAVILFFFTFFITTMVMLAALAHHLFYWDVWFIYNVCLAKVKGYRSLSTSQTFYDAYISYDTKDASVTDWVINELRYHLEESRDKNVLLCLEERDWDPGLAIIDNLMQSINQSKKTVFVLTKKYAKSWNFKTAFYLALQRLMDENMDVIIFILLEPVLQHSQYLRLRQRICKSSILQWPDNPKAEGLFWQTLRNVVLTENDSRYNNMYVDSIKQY
Experimental: TLR7/8/9 Inhibition Reporter Assays
Briefly, cells are seeded into Greiner 384 well plates (15000 cells per well for TLR7, 20,000 for TLR8 and 25,000 for TLR9) and then treated with test compounds in DMSO to yield a final dose response concentration range of 0.05 nM-50 μM. […] After a 22 hour incubation at 37° C., 5% CO2, SEAP levels are determined with the addition of HEK-Blue™ Detection reagent (Invivogen), a cell culture medium that allows for detection of SEAP, according to manufacturer's specifications. The percent inhibition is determined as the % reduction in the HEK-Blue signal present in wells treated with agonist plus DMSO alone compared to wells treated with a known inhibitor.

CCc1c(-c2ccc(OC)c(OC)c2)[nH]c2ccc(C3CCN(C4CCN(Cc5cc(C)n[nH]5)CC4)CC3)cc12 [Example 131, 2-(3,4-dimethoxyphenyl)-3-ethyl-5-(1′-((3-methyl-1H-pyrazol-5-yl)methyl)-[1,4′-bipiperidin]-4-yl)-1H-indole]
pIC50 (human TLR7): 6.43 | pIC50 (human TLR8): 7.25

CCc1c(-c2ccc(OC)c(OC)c2)[nH]c2ccc(C3CCN(C4CCN(Cc5cc(C)nn5C)CC4)CC3)cc12 [Example 132, 2-(3,4-dimethoxyphenyl)-5-(1′-((1,3-dimethyl-1H-pyrazol-5-yl)methyl)-[1,4′-bipiperidin]-4-yl)-3-ethyl-1H-indole]
pIC50 (human TLR7): ≤ 4.30 | pIC50 (human TLR8): ≤ 4.30

CCc1c(-c2ccc(OC)c(OC)c2)[nH]c2ccc(C3CCN(C4CCN(Cc5ccn(C)n5)CC4)CC3)cc12 [Example 133, 2-(3,4-dimethoxyphenyl)-3-ethyl-5-(1′-((1-methyl-1H-pyrazol-3-yl)methyl)-[1,4′-bipiperidin]-4-yl)-1H-indole]
pIC50 (human TLR7): 6.68 | pIC50 (human TLR8): 6.80

CCc1c(-c2ccc(OC)c(OC)c2)[nH]c2ccc(C3CCN(C4CCN(Cc5cc6ccccc6n5C)CC4)CC3)cc12 [Example 137, 2-(3,4-dimethoxyphenyl)-3-ethyl-5-(1′-((1-methyl-1H-indol-2-yl)methyl)-[1,4′-bipiperidin]-4-yl)-1H-indole]
pIC50 (human TLR7): 5.33 | pIC50 (human TLR8): 5.89

CCc1c(-c2ccc(OC)c(OC)c2)[nH]c2ccc(C3CCN(C4CCN(Cc5c(C)noc5C)CC4)CC3)cc12 [Example 138, 4-((4-(2-(3,4-dimethoxyphenyl)-3-ethyl-1H-indol-5-yl)-[1,4′-bipiperidin]-1′-yl)methyl)-3,5-dimethylisoxazole]
pIC50 (human TLR7): 5.45 | pIC50 (human TLR8): 6.57

CCc1c(-c2ccc(OC)c(OC)c2)[nH]c2ccc(C3CCN(C4CCN(Cc5sccc5C)CC4)CC3)cc12 [Example 139, 2-(3,4-dimethoxyphenyl)-3-ethyl-5-(1′-((3-methylthiophen-2-yl)methyl)-[1,4′-bipiperidin]-4-yl)-1H-indole]
pIC50 (human TLR7): 6.24 | pIC50 (human TLR8): 6.69

CCc1c(-c2ccc(OC)c(OC)c2)[nH]c2ccc(C3CCN(C4CCN(Cc5ccc(C)s5)CC4)CC3)cc12 [Example 140, 2-(3,4-dimethoxyphenyl)-3-ethyl-5-(1′-((5-methylthiophen-2-yl)methyl)-[1,4′-bipiperidin]-4-yl)-1H-indole]
pIC50 (human TLR7): 5.99 | pIC50 (human TLR8): 6.62

CCc1c(-c2ccc(OC)c(OC)c2)[nH]c2ccc(C3CCN(C4CCN(Cc5ccc(-c6ccccc6)s5)CC4)CC3)cc12 [Example 141, 2-(3,4-dimethoxyphenyl)-3-ethyl-5-(1′-((5-phenylthiophen-2-yl)methyl)-[1,4′-bipiperidin]-4-yl)-1H-indole]
pIC50 (human TLR7): 5.43 | pIC50 (human TLR8): 5.01

CCc1c(-c2ccc(OC)c(OC)c2)[nH]c2ccc(C3CCN(C4CCN(Cc5ccsc5)CC4)CC3)cc12 [Example 142, 2-(3,4-dimethoxyphenyl)-3-ethyl-5-(1′-(thiophen-3-ylmethyl)-[1,4′-bipiperidin]-4-yl)-1H-indole]
pIC50 (human TLR7): 6.05 | pIC50 (human TLR8): 7.00

CCc1c(-c2ccc(OC)c(OC)c2)[nH]c2ccc(C3CCN(C4CCN(Cc5ccc(-c6ccccc6)o5)CC4)CC3)cc12 [Example 143, 2-(3,4-dimethoxyphenyl)-3-ethyl-5-(1′-((5-phenylfuran-2-yl)methyl)-[1,4′-bipiperidin]-4-yl)-1H-indole]
pIC50 (human TLR7): 5.90 | pIC50 (human TLR8): 6.15

CCc1c(-c2ccc(OC)c(OC)c2)[nH]c2ccc(C3CCN(C4CCN(Cc5cc(C)n(C)n5)CC4)CC3)cc12 [Example 144, 2-(3,4-dimethoxyphenyl)-5-(1′-((1,5-dimethyl-1H-pyrazol-3-yl)methyl)-[1,4′-bipiperidin]-4-yl)-3-ethyl-1H-indole]
pIC50 (human TLR7): 6.33 | pIC50 (human TLR8): 7.14

CCc1c(-c2ccc(OC)c(OC)c2)[nH]c2ccc(C3CCN(C4CCN(Cc5ccccc5)CC4)CC3)cc12 [Example 147, 5-(1′-benzyl-[1,4′-bipiperidin]-4-yl)-2-(3,4-dimethoxyphenyl)-3-ethyl-1H-indole]
pIC50 (human TLR7): 6.53 | pIC50 (human TLR8): 7.00

CCc1c(-c2ccc(OC)c(OC)c2)[nH]c2ccc(C3CCN(C4CCN(CC)CC4)CC3)cc12 [Example 149, 2-(3,4-dimethoxyphenyl)-3-ethyl-5-(1′-ethyl-[1,4′-bipiperidin]-4-yl)-1H-indole]
pIC50 (human TLR7): 6.46 | pIC50 (human TLR8): 7.51

CCc1c(-c2ccc(OC)c(OC)c2)[nH]c2ccc(C3CCN(C4CCN(C)CC4)CC3)cc12 [Example 150, 2-(3,4-dimethoxyphenyl)-3-ethyl-5-(1′-methyl-[1,4′-bipiperidin]-4-yl)-1H-indole]
pIC50 (human TLR7): 5.10 | pIC50 (human TLR8): 5.87

CCc1c(-c2ccc(OC)c(OC)c2)[nH]c2ccc(C3CCN(C4CCN(C(C)C)CC4)CC3)cc12 [Example 151, 2-(3,4-dimethoxyphenyl)-3-ethyl-5-(1′-isopropyl-[1,4′-bipiperidin]-4-yl)-1H-indole]
pIC50 (human TLR7): 6.29 | pIC50 (human TLR8): 6.39

CCc1c(-c2ccc(OC)c(OC)c2)[nH]c2ccc(C3CCN(C4CCN(C5CCCC5)CC4)CC3)cc12 [Example 152, 5-(1′-cyclopentyl-[1,4′-bipiperidin]-4-yl)-2-(3,4-dimethoxyphenyl)-3-ethyl-1H-indole]
pIC50 (human TLR7): 6.23 | pIC50 (human TLR8): 7.48

CCc1c(-c2ccc(OC)c(OC)c2)[nH]c2ccc(C3CCN(C4CCN(Cc5cnc(C)[nH]5)CC4)CC3)cc12 [Example 153, 2-(3,4-dimethoxyphenyl)-3-ethyl-5-(1′-((2-methyl-1H-imidazol-5-yl)methyl)-[1,4′-bipiperidin]-4-yl)-1H-indole]
pIC50 (human TLR7): 5.83 | pIC50 (human TLR8): 6.44

CCc1c(-c2ccc(OC)c(OC)c2)[nH]c2ccc(C3CCN(CCNC)CC3)cc12 [Example 155, 2-(4-(2-(3,4-dimethoxyphenyl)-3-ethyl-1H-indol-5-yl)piperidin-1-yl)-N-methylethanamine di-trifluoroacetic acid]
pIC50 (human TLR7): 6.87 | pIC50 (human TLR8): 7.54

CCc1c(-c2ccc(OC)c(OC)c2)[nH]c2ccc(C3CCN(C(=O)CNCCO)CC3)cc12 [Example 159, 1-(4-(2-(3,4-dimethoxyphenyl)-3-ethyl-1H-indol-5-yl)piperidin-1-yl)-2-((2-hydroxyethyl)amino) ethan-1-one]
pIC50 (human TLR7): 7.38 | pIC50 (human TLR8): 7.59
